Experimental findings from US4493843A, “Indole and indoline carboxylic acid compounds and method of use” (May & Baker Limited, priority 1980, dated 1985) are described below.

Like-named read-outs stand apart in the source and are kept apart here.

The test system of the test is serum cholesterol and serum triglycerides. Nature of the test: Hypolipidaemic activity in rats (compound in diet, last 7 of 10 days). It counts as in vivo, Male Wistar rats. To be noted: Rattus norvegicus, po, 168 h, 7 days; for change in vivo at 0.2 % strength: 0.2 % w/w dose in diet; for change in vivo at 0.1 % strength: 0.1 % w/w dose in diet. As for the experimental part:
Hypolipidaemic Activity in Rats
Male Wistar rats each weighing between 120 and 150 g were caged in groups of eight and fed a powdered diet for 10 days. For the last 7 days of that period the test compound was administered orally by mixing the compound in the diet and allowing the animals to feed normally. Food consumption was measured on day 9 for each group.
At noon on day 10 the animals were killed by inhalation of carbon dioxide from solid carbon dioxide. A sample of blood was removed by cardiac puncture and the serum cholesterol and serum triglycerides were analysed by means of an autoanalyser.
Control groups (receiving only the normal, unmedicated diet) were included with each test.
The percentage reductions in the concentrations of serum cholesterol and serum triglycerides were calculated by comparison with the simultaneous controls, for each concentration of the test compound used.

The mark [1] stands for this setting: read-out: % change in serum cholesterol compared with control.
Where [2] appears, read: read-out: % change in serum triglycerides compared with control.

Consider `CCCCCCCCCCCCCCCCCc1cc2ccc(C(=O)O)cc2[nH]1` [Compound B, 2-(n-heptadecyl)indole-6-carboxylic acid], for which the change in vivo at 0.2 % strength under setting [1] was found to be 5% and the change in vivo at 0.2 % strength under setting [2] is -4%.

For the molecule `CCCCCCCCCCCCCCCC1CNc2cc(C(=O)O)ccc21` (racemic) [Compound BZZ, (RS)-3-(n-pentadecyl)indoline-6-carboxylic acid], the change in vivo at 0.2 % strength was -1% under setting [1] and -29% under setting [2].

With `CCCCCCCCCCCc1cc2ccc(C(=O)OCC)cc2[nH]1` [Compound FF, ethyl 2-(n-undecyl)indole-6-carboxylate], the change in vivo at 0.2 % strength is -13% under setting [1] and -40% under setting [2].

As to `CCCCCCCCCCCCCCCCCCCc1cc2cc(C(=O)O)ccc2[nH]1` [Compound PP, 2-(n-nonadecyl)indole-5-carboxylic acid], the change in vivo at 0.2 % strength reads like this: under setting [1], -13%; under setting [2], -41%.

`CCCCCCCCCCCCCc1cc2ccc(C(=O)OCC)cc2[nH]1` [Compound AMM, ethyl 2-(n-tridecyl)indole-6-carboxylate]: the change in vivo at 0.2 % strength is -4% under setting [1] and -12% under setting [2].

As for `CCCCCCCCCc1cc2cccc(C(=O)O)c2[nH]1` [Compound WW, 2-(n-nonyl)indole-7-carboxylic acid], the change in vivo at 0.2 % strength was -3% under setting [1] and 45% under setting [2].

For the molecule `CCCCCCCC1Cc2cc(C(=O)O)ccc2N1` (racemic) [Compound ABB, (RS)-2-(n-heptyl)indoline-5-carboxylic acid], the change in vivo at 0.2 % strength is -18% under setting [1] and -34% under setting [2].

For the molecule `CCCCCCCCCCCCc1cc2cc(C(=O)OCCCC)ccc2[nH]1` [Compound KK, n-butyl 2-(n-dodecyl)indole-5-carboxylate], the change in vivo at 0.2 % strength is, setting by setting: under setting [1], -18%; under setting [2], -34%.

In the case of `CCCCCCCc1cc2ccc(C(=O)OC)cc2[nH]1` [Compound AII, methyl 2-(n-heptyl)indole-6-carboxylate], the change in vivo at 0.2 % strength stood at 7% under setting [1] and 20% under setting [2].

Take `CCCCCCCCCCCc1cc2ccc(C(=O)OCC(O)CO)cc2[nH]1` (racemic) [Compound CVV, (RS)-2,3-dihydroxyprop-1-yl 2-(n-undecyl)indole-6-carboxylate]: the change in vivo at 0.1 % strength runs as follows: under setting [1], -16%; under setting [2], -56%.

As for `CCCCCCCCCCCCCCCCc1c[nH]c2cc(C(=O)O)ccc12` [Compound BFF, 3-(n-hexadecyl)indole-6-carboxylic acid], the change in vivo at 0.2 % strength is 7% under setting [1] and -17% under setting [2].

With `CCCCCCCCCCCCC1CNc2cc(C(=O)O)ccc21` (racemic) [Compound CAA, (RS)-3-(n-dodecyl)indoline-6-carboxylic acid], the change in vivo at 0.2 % strength under setting [1] is -28% and the change in vivo at 0.2 % strength under setting [2] is -46%.

For `CCCCCCCCCCCCc1cc2cc(C(=O)OC)ccc2[nH]1` [Compound AVV, methyl 2-(n-dodecyl)indole-5-carboxylate], the change in vivo at 0.1 % strength is -16% under setting [1] and -65% under setting [2]. Further, the change in vivo at 0.2 % strength is -21% under setting [1] and -80% under setting [2].

Consider `CCCCCCCCCCCCc1cc2cc(C(=O)O)ccc2[nH]1` [Compound Y, 2-(n-dodecyl)indole-5-carboxylic acid], for which the change in vivo at 0.1 % strength is, setting by setting: under setting [1], -20%; under setting [2], -51%. The change in vivo at 0.2 % strength was -30% under setting [1] and -80% under setting [2].

As to `CCCCCCCc1cc2cc(C(=O)OCC)ccc2[nH]1` [Compound DD, ethyl 2-(n-heptyl)indole-5-carboxylate], the change in vivo at 0.2 % strength runs as follows: under setting [1], -6%; under setting [2], -25%.

Take `CCCCCCCCCCCCCCCCCCCCc1cc2ccc(C(=O)OCCCC)cc2[nH]1` [Compound AQQ, n-butyl 2-(n-eicosyl)indole-6-carboxylate]: the change in vivo at 0.2 % strength is 6% under setting [1] and -12% under setting [2].

Turning to `CCCCCCCCCC(C)c1cc2ccc(C(=O)O)cc2[nH]1` (racemic) [Compound VV, (RS)-2-(1-methyldecyl)indole-6-carboxylic acid], the change in vivo at 0.2 % strength is, setting by setting: under setting [1], -40%; under setting [2], -73%.

Turning to `CCCCCCCCCCc1cc2cc(C(=O)O)ccc2[nH]1` [Compound M, 2-(n-decyl)indole-5-carboxylic acid], the change in vivo at 0.2 % strength is -26% under setting [1] and -65% under setting [2].

As for `CCCCCCCCCc1cc2c(C(=O)O)cccc2[nH]1` [Compound Z, 2-(n-nonyl)indole-4-carboxylic acid], the change in vivo at 0.2 % strength is, setting by setting: under setting [1], -14%; under setting [2], -14%.

For `CCCCCCCCCCCc1cc2cc(C(=O)OCCCC)ccc2[nH]1` [Compound AUU, n-butyl 2-(n-undecyl)indole-5-carboxylate], the change in vivo at 0.2 % strength was -14% under setting [1] and -57% under setting [2].

For `CCCCCCCc1cc2cc(C(=O)O)ccc2[nH]1` [Compound Q, 2-(n-heptyl)indole-5-carboxylic acid], the change in vivo at 0.2 % strength is, setting by setting: under setting [1], -10%; under setting [2], -14%.

`CCCCCCCCCCCCCCCCCC1Cc2cc(C(=O)O)ccc2N1` (racemic) [Compound ADD, (RS)-2-(n-heptadecyl)indoline-5-carboxylic acid]: the change in vivo at 0.2 % strength reads like this: under setting [1], -6%; under setting [2], -40%.

For `CCCCCCCCc1c[nH]c2cc(C(=O)O)ccc12` [Compound BEE, 3-(n-octyl)indole-6-carboxylic acid], the change in vivo at 0.2 % strength was -19% under setting [1] and -18% under setting [2].

As to `CCCCCCCCCCCCCCCCc1cc2cc(C(=O)O)ccc2[nH]1` [Compound OO, 2-(n-hexadecyl)indole-5-carboxylic acid], the change in vivo at 0.2 % strength by setting is: under setting [1], -52%; under setting [2], -75%.

Regarding `CCCCCCCc1cc2ccc(C(=O)OCCCC)cc2[nH]1` [Compound AKK, n-butyl 2-(n-heptyl)indole-6-carboxylate], the change in vivo at 0.2 % strength is, setting by setting: under setting [1], -3%; under setting [2], -10%.

Regarding `CCCCCCCCC1CNc2cc(C(=O)OC)ccc21` (racemic) [Compound CEE, (RS)-methyl 3-(n-octyl)indoline-6-carboxylate], the change in vivo at 0.2 % strength reads like this: under setting [1], -16%; under setting [2], -16%.

For the molecule `CCCCCCCCCCCCCCCCCc1cc2cc(C(=O)OC)ccc2[nH]1` [Compound AWW, methyl 2-(n-heptadecyl)indole-5-carboxylate], the change in vivo at 0.2 % strength under setting [1] was -24%.

`CCCCCCCCc1c[nH]c2ccc(C(=O)O)cc12` [Compound BTT, 3-(n-octyl)indole-5-carboxylic acid]: the change in vivo at 0.2 % strength came to 0% under setting [1] and 15% under setting [2].

Take `CCCCCCCCCCCc1cc2cc(C(=O)O)ccc2[nH]1` [Compound F, 2-(n-undecyl)indole-5-carboxylic acid]: under setting [1], the change in vivo at 0.1 % strength is -18% and the change in vivo at 0.2 % strength is -37%. Also, under setting [2], the change in vivo at 0.1 % strength is -43% and the change in vivo at 0.2 % strength was -73%.
